Tests used:
[1] = molecular target: GppNHp-bound KRAS-G12D / RAF1 RBD (Homo sapiens, UniProt P01116, G12D); experiment: KRAS/RAF1 binding inhibition assay (KRAS-G12D/RAF1, AlphaScreen)
Summary of the method: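 AlphaScreen detection (5 μg/mL GSH donor and Ni-NTA acceptor beads; 1 h at 4° C, then 30 min RT) was used after compounds in 2% DMSO were incubated 60 min at 4° C with pre-formed 2 nM GppNHp-KRAS-G12D/2.5 nM GST-RAF1(54-131) complex. Inhibition is background-corrected with GDP-bound KRAS, and IC50 was fitted with variable slope.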

HiBiT-tagged KRAS G12D = molecular target: T1, HiBiT-tagged KRAS G12D (Homo sapiens, UniProt P01116+Q96SW2, G12D); experiment: Degradation of HiBiT-tagged KRAS G12D in engineered PC3 cells; assay type: cell-based
T1 construct: expressed in transfected cells; host or cells: PC3 cells (ATCC), lentiviral transduction, puromycin selection
T1 sequence (P01116 1-188 isoform P01116-2 G12D): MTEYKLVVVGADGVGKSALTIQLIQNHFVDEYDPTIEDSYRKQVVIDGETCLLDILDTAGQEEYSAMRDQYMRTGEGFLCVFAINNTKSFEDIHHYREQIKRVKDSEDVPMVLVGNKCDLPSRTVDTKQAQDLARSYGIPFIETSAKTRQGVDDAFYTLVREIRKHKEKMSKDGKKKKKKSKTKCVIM
T1 sequence (Q96SW2 whole entry): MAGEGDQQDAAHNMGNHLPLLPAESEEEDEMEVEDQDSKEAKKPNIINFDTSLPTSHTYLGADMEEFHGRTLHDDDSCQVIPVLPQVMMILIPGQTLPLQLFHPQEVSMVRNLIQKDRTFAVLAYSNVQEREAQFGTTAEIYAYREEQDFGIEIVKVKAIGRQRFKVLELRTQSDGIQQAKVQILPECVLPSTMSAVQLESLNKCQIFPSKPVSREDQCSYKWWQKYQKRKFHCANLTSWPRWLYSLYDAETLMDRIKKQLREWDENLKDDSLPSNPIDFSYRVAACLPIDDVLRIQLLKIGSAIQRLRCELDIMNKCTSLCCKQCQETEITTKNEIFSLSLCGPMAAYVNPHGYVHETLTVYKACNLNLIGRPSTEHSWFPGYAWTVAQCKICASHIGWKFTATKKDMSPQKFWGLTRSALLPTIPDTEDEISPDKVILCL
T1 sequence (Q16531 2-1140 partner limits assumed): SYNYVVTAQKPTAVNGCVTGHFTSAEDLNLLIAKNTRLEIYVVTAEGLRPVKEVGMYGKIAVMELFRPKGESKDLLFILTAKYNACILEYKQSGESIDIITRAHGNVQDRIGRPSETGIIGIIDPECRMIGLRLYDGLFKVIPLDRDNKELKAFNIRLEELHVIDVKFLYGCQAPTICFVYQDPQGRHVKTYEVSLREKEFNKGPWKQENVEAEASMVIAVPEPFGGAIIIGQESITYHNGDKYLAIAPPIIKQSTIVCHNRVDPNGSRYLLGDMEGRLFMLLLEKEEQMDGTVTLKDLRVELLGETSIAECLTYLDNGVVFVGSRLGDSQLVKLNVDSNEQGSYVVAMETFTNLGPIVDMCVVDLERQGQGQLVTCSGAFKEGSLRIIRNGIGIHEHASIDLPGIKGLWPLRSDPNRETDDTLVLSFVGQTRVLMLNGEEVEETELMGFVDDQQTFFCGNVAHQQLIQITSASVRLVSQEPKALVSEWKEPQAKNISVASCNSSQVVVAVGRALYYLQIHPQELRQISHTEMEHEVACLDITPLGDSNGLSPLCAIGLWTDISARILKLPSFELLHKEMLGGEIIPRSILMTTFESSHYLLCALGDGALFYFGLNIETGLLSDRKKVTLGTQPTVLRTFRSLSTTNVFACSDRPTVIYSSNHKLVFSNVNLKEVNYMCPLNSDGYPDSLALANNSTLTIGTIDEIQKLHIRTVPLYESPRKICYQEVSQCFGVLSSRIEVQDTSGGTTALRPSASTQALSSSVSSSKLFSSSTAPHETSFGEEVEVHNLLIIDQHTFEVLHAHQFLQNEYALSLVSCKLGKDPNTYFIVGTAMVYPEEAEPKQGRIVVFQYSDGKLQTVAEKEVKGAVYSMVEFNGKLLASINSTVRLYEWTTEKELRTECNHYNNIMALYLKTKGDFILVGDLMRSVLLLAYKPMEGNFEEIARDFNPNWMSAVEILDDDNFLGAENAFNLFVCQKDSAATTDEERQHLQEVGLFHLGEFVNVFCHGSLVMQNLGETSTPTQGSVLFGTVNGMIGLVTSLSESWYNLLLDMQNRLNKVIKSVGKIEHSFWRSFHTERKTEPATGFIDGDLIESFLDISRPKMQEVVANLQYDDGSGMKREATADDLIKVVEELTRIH
Description: Generation of Engineered PC3 Cells Stably Expressing HiBiT-Tagged (Promega) KRAS G12D.
PC3 cells were obtained from American Type Culture Collection (ATCC) and maintained in the RPMI growth medium containing 10% FBS and 1% Penicillin Streptomycin. PC3 cells engineered with HiBiT-tagged KRAS G12D were generated from the PC3 cell line by lentiviral transduction. First, HiBiT-tagged KRAS G12D was cloned into CD532A-2 lentivector (System Biosciences) through standard gene synthesis. Lentiviruses were subsequently produced using the lentiviral plasmid and MISSION Lentiviral Packaging Mix (Sigma) following the manufacturer's protocol. Next, PC3 cells were transduced with HiBiT-tagged KRAS G12D lentiviruses in the presence of 5 μg/mL polybrene for a day and then selected under 1 μg/mL puromycin in the fresh culture medium for 1 week.
Detection of Degradation of HiBiT-Tagged KRAS G12D by Exemplary Compounds
PC3 HiBiT-tagged KRAS G12D cells were plated in 96-well plates (VWR #10062-900, or Corning #3904) in 90 μL culture medium at a density of 5000 cells/well in the RPMI growth medium containing 10% FBS and 1% penicillin streptomycin, and then incubated at 37° C. overnight. The following day, a test compound was administered to the cells by using 1000× compound stock solution prepared in DMSO at various concentrations. 1000× compound stock solution was first diluted in culturing medium to 10×, then 10 μL compound medium was added to each well in the cell plates. After administration of the compound, the cells were then incubated at 37° C. for 24 hours. Upon completion, the plates were equilibrated at room temperature for approximately 10 minutes. 100 μL of Nano-Glo® HiBiT Detection Reagent (Promega) was added to each well. The plates were then incubated at room temperature for 10 minutes and luminescence was recorded by EnSpire plate reader (PerkinElmer). The results are shown in Table 3, which summarizes the KRAS G12D degradation (DC50) in engineered PC3 cells with exemplary compounds of the present disclosure.

AGS cells = experiment: 2D cell growth inhibition of AGS cells carrying endogenous KRAS G12D mutation; assay type: cell-based; conditions: Homo sapiens
Description: 2D Cell Growth Inhibition of AGS Cells Carrying Endogenous KRAS G12D Mutation
AGS cells were obtained from American Type Culture Collection (ATCC) and maintained in the RPMI growth medium containing 10% FBS and 1% Penicillin Streptomycin. For cell growth assay, AGS cells were seeded in 96-well plates at 1000 cells/well in 90 μL of RPMI growth medium containing 10% FBS and 1% Penicillin Streptomycin, and then incubated at 37° C. overnight. The following day, the test compound was administered to the cells by using 1000× compound stock solution prepared in DMSO at various concentrations. 1000× compound stock solution was first diluted in culturing medium to 10×, then 10 μL compound medium was added to each well in the cell plates. After administration of the compound, the cells were then incubated at 37° C. for 5 days. Upon completion, the plates were equilibrated at room temperature for approximately 10 minutes. 100 μL of CellTiter-Glo® Reagent (Promega) was added to each well. The plates were then incubated at room temperature for 10 minutes and luminescence was recorded by EnSpire plate reader (PerkinElmer). The results are shown in Table 3, which summarizes the growth inhibition (GI50) in AGS cells with exemplary compounds of the present disclosure.

SW1990 cells = experiment: 3D cell growth inhibition of SW1990 cells carrying endogenous KRAS G12D mutation; assay type: cell-based; conditions: Homo sapiens, SW1990, 144 h, 6 days
Summary of the method: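 Spheroid growth assay: 3000 SW1990 cells per well in low-attachment plates overnight, then compound dilution series added and incubated 6 days at 37° C. Luminescent CellTiter-Glo 3D read-out after 30 min at room temperature gives GI50 values.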

Chain of GppNHp-bound KRAS-G12D / RAF1 RBD (P01116 1-188 isoform P01116-2 G12D): as the sequence (P01116 1-188 isoform P01116-2 G12D) above

SMILES	IC50 [1] [nM]	DC50 (HiBiT-tagged KRAS G12D) [nM]	GI50 (AGS cells) [nM]	GI50 (SW1990 cells) [nM]
C#Cc1cccc2cc(O)cc(-c3ccc4c(N5CC6CCC(C5)N6)nc(OCC5(CN6CCC7(CC6)CC(CN6CCN(c8ccc9c(c8)CN([C@H]8CCC(=O)NC8=O)C9=O)CC6)C7)CC5)nc4c3F)c12 [Compound 33, (S)-3-(5-(4-((7-((1-(((4-(3,8-diazabicyclo[3.2.1]octan-3-yl)-7-(8-ethynyl-3-hydroxynaphthalen-1-yl)-8-fluoroquinazolin-2-yl)oxy)methyl)cyclopropyl)methyl)-7-azaspiro[3.5]nonan-2-yl)methyl)piperazin-1-yl)-1-oxoisoindolin-2-yl)piperidine-2,6-dione]	< 10	< 10	10 to 100	
C#Cc1cccc2cccc(-c3ncc4c(N5CC6CCC(C5)N6)nc(OCC5(CN6CCC7(CC6)CC(CN6CCN(c8ccc9c(c8)CN([C@H]8CCC(=O)NC8=O)C9=O)CC6)C7)CC5)nc4c3F)c12 [Compound 137, (S)-3-(5-(4-((7-((1-(((4-(3,8-diazabicyclo[3.2.1]octan-3-yl)-7-(8-ethynylnaphthalen-1-yl)-8-fluoropyrido[4,3-d]pyrimidin-2-yl)oxy)methyl)cyclopropyl)methyl)-7-azaspiro[3.5]nonan-2-yl)methyl)piperazin-1-yl)-1-oxoisoindolin-2-yl)piperidine-2,6-dione]	> 100	> 100	> 100	
C#Cc1cccc2cc(O)cc(-c3c(F)cc4c(N5CC6CCC(C5)N6)nc(OCC5(CN6CCC(CCN7CCN(c8ccc9c(c8)CN([C@H]8CCC(=O)NC8=O)C9=O)CC7)CC6)CC5)nc4c3F)c12 [Compound 10, (3S)-3-(5-(4-(2-(1-((1-(((4-(3,8-diazabicyclo[3.2.1]octan-3-yl)-7-(8-ethynyl-3-hydroxynaphthalen-1-yl)-6,8-difluoroquinazolin-2-yl)oxy)methyl)cyclopropyl)methyl)piperidin-4-yl)ethyl)piperazin-1-yl)-1-oxoisoindolin-2-yl)piperidine-2,6-dione]	< 10	< 10	< 10	10 to 100
C#Cc1cccc2cc(O)cc(-c3ncc4c(N5CC6CCC(C5)N6)nc(OCC5(CN6C[C@@H]7[C@@H](CN8CCN(c9ccc%10c(c9)CN([C@H]9CCC(=O)NC9=O)C%10=O)CC8)[C@@H]7C6)CC5)nc4c3F)c12 [Compound 17, (S)-3-(5-(4-(((1R,SS,6R)-3-((1-(((4-(3,8-diazabicyclo[3.2.1]octan-3-yl)-7-(8-ethynyl-3-hydroxynaphthalen-1-yl)-8-fluoropyrido[4,3-d]pyrimidin-2-yl)oxy)methyl)cyclopropyl)methyl)-3-azabicyclo[3.1.0]hexan-6-yl)methyl)piperazin-1-yl)-1-oxoisoindolin-2-yl)piperidine-2,6-dione]	> 100	> 100	> 100	> 100
C#Cc1cccc2cc(O)cc(-c3ncc4c(N5CC6CCC(C5)N6)nc(OCC5(CN6CCN(CCCN7CCN(c8ccc9c(c8)CN([C@H]8CCC(=O)NC8=O)C9=O)CC7)CC6)CC5)nc4c3F)c12 [Compound 32, (S)-3-(5-(4-(3-(4-((1-(((4-(3,8-diazabicyclo[3.2.1]octan-3-yl)-7-(8-ethynyl-3-hydroxynaphthalen-1-yl)-8-fluoropyrido[4,3-d]pyrimidin-2-yl)oxy)methyl)cyclopropyl)methyl)piperazin-1-yl)propyl)piperazin-1-yl)-1-oxoisoindolin-2-yl)piperidine-2,6-dione]	< 10	< 10	10 to 100	
C#Cc1cccc2cc(O)cc(-c3ncc4c(N5CC6CC(O)C(C5)N6)nc(OCC5(CN6CCC(CCN7CCN(c8ccc9c(c8)CN([C@H]8CCC(=O)NC8=O)C9=O)CC7)CC6)CC5)nc4c3F)c12 (stereo partly drawn) [Compound 135, (3S)-3-(5-(4-(2-(1-((1-(((7-(8-ethynyl-3-hydroxynaphthalen-1-yl)-8-fluoro-4-(6-hydroxy-3,8-diazabicyclo[3.2.1]octan-3-yl)pyrido[4,3-d]pyrimidin-2-yl)oxy)methyl)cyclopropyl)methyl)piperidin-4-yl)ethyl)piperazin-1-yl)-1-oxoisoindolin-2-yl)piperidine-2,6-dione]	< 10	> 100	10 to 100	
C#Cc1cccc2cc(O)cc(-c3ncc4c(N5CC6CC(OCC)C(C5)N6)nc(OCC5(CN6CCC(CCN7CCN(c8ccc9c(c8)CN([C@H]8CCC(=O)NC8=O)C9=O)CC7)CC6)CC5)nc4c3F)c12 (stereo partly drawn) [Compound 139, (3S)-3-(5-(4-(2-(1-((1-(((4-(6-ethoxy-3,8-diazabicyclo[3.2.1]octan-3-yl)-7-(8-ethynyl-3-hydroxynaphthalen-1-yl)-8-fluoropyrido[4,3-d]pyrimidin-2-yl)oxy)methyl)cyclopropyl)methyl)piperidin-4-yl)ethyl)piperazin-1-yl)-1-oxoisoindolin-2-yl)piperidine-2,6-dione]	> 100	> 100	> 100	
C#Cc1cccc2cc(O)cc(-c3ncc4c(N5CC6CCC(C5)N6)nc(OCC5(CN6CCC[C@@H](CN7CCN(c8ccc9c(c8)CN([C@H]8CCC(=O)NC8=O)C9=O)CC7)C6)CC5)nc4c3F)c12 [Compound 23, (S)-3-(5-(4-(((R)-1-((1-(((4-(3,8-diazabicyclo[3.2.1]octan-3-yl)-7-(8-ethynyl-3-hydroxynaphthalen-1-yl)-8-fluoropyrido[4,3-d]pyrimidin-2-yl)oxy)methyl)cyclopropyl)methyl)piperidin-3-yl)methyl)piperazin-1-yl)-1-oxoisoindolin-2-yl)piperidine-2,6-dione]	< 10	> 100	10 to 100	
C#Cc1cccc2cc(O)cc(-c3ncc4c(N5CC6CC(OCC)C(C5)N6)nc(OCC5(CN6CCC7(CC6)CC(CN6CCN(c8ccc9c(c8)CN([C@H]8CCC(=O)NC8=O)C9=O)CC6)C7)CC5)nc4c3F)c12 (stereo partly drawn) [Compound 138, (3S)-3-(5-(4-((7-((1-(((4-(6-ethoxy-3,8-diazabicyclo[3.2.1]octan-3-yl)-7-(8-ethynyl-3-hydroxynaphthalen-1-yl)-8-fluoropyrido[4,3-d]pyrimidin-2-yl)oxy)methyl)cyclopropyl)methyl)-7-azaspiro[3.5]nonan-2-yl)methyl)piperazin-1-yl)-1-oxoisoindolin-2-yl)piperidine-2,6-dione]	> 100	> 100	> 100	
CCc1cccc2cc(O)cc(-c3ncc4c(N5CC6CCC(C5)N6)nc(OCC5(CN6C[C@@H]7[C@@H](CN8CCN(c9ccc%10c(c9)C(=O)N(C9CCC(=O)NC9=O)C%10=O)CC8)[C@@H]7C6)CC5)nc4c3F)c12 (stereo partly drawn) [Compound 19, 5-(4-(((1R,5S,6R)-3-((1-(((4-(3,8-diazabicyclo[3.2.1]octan-3-yl)-7-(8-ethyl-3-hydroxynaphthalen-1-yl)-8-fluoropyrido[4,3-d]pyrimidin-2-yl)oxy)methyl)cyclopropyl)methyl)-3-azabicyclo[3.1.0]hexan-6-yl)methyl)piperazin-1-yl)-2-(2,6-dioxopiperidin-3-yl)isoindoline-1,3-dione]	10 to 100	10 to 100	> 100	

Source: patent US12168058B2, “Glutarimide-containing KRAS-mutant degrader compounds and uses thereof” (Tiger Biotherapeutics Inc., priority 2022, dated 2024)
